Data taken from patent US11453669B2, “Polycyclic pyridone derivative” (Shionogi & Co., Ltd., priority 2018, dated 2022).

Legend:
Assay type in all cases: cell-based
HIV = experiment: Anti-HIV activity (MT-4 cells, MTT); conditions: read-out: EC50_nM (50% HIV inhibitory concentration); MT-4 cells, cultured 4 days, MTT
Procedure, shortened: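 MT-4 cells (2.5×10^5 cells/mL) infected with HIV in the presence of serially diluted compound, cultured 4 days in CO2 incubator. Viability read by MTT (1 h), cell lysis, then absorbance at 560 and 690 nm.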

[1] = test system: HIV mutant strain 1 (E138K/G140S/Q148H/N155H); conditions: FC=EC50 of the mutant strain/EC50 of the wild strain, HeLa-CD4 cells
Procedure: (§1) Serial dilutions of a test sample were prepared in a 96-well microplate (50 μL/well). 2.5×10^5 cells/mL of a HeLa-CD4 cell suspension was dispensed at 100 μL/well to the plate containing the test sample. Then, an HIV virus solution (wild strain and mutant strain) was dispensed at 50 μL/well. The plate was mixed with a plate mixer and cultured for 3 days in a CO2 incubator. The culture supernatant in each well was removed by suction. A cell lysis buffer in a reporter assay kit was dispensed at 100 μL/well, and the plate was frozen in a freezer (−80° C.). The plate frozen in a freezer was thawed at room temperature, then mixed with a plate mixer, and centrifuged at 1,200 rpm for 5 minutes. The supernatant of each well was dispensed at 20 μL/well to a 96-well microplate (BLACK). A chemiluminescent in the reporter assay kit reagent was dispensed at 100 μL/well and reacted at room temperature for approximately 1 hour. Then, luminescence intensity was measured using MicroBeta TRILUX.

[2] = test system: HIV mutant strain 2 (E92Q/E138T/G140S/Q148H); conditions: FC=EC50 of the mutant strain/EC50 of the wild strain, HeLa-CD4 cells
Procedure: as §1

[3] = test system: HIV mutant strain 3 (E92Q/E138K/G140S/Q148H); experiment: Resistance evaluation test, HeLa-CD4 reporter assay, mutant strain 3; conditions: FC=EC50 of the mutant strain/EC50 of the wild strain, HeLa-CD4 cells
Procedure: as §1, with “TRILUX. […] FC=EC50 of the mutant strain/EC50 of the wild strain (Results) The FC for mutant strain 1 (E138K/G140S/Q148H/N155H) and the FC for mutant strain 2 (E92Q/E138T/G140S/Q148H) are shown in the table.” for “TRILUX.”

[4] = test system: HIV mutant strain 4 (T97A/E138T/G140S/Q148H); experiment: Resistance evaluation test, HeLa-CD4 reporter assay, mutant strain 4; conditions: FC=EC50 of the mutant strain/EC50 of the wild strain, HeLa-CD4 cells
Procedure: as §1, with “TRILUX. […] FC=EC50 of the mutant strain/EC50 of the wild strain (Results) The FC for mutant strain 1 (E138K/G140S/Q148H/N155H) and the FC for mutant strain 2 (E92Q/E138T/G140S/Q148H) are shown in the table.” for “TRILUX.”

[5] = biological target: T1, Voltage gated sodium channel (Nav1.5 channel) encoded by SCN5A gene (Homo sapiens, UniProt Q14524); experiment: Nav test (QPatch whole cell patch clamp); conditions: HEK cells expressing Nav1.5, applied 5 minutes or more, room temperature
T1 construct: expressed in transfected cells; host or cells: HEK cells
Procedure: A cell was retained at a membrane potential of −100 mV by whole cell patch clamp method using a fully automated patch clamp system (QPatch; Sophion Bioscience A/S), and INa induced by depolarization pulse stimulation at −10 mV for 20 ms was recorded. […] The extracellular solution in which the medium and the compound of the present invention had been dissolved at each objective concentration was applied to the cell for 5 minutes or more under conditions of room temperature.

T1 sequence (Q14524 whole entry): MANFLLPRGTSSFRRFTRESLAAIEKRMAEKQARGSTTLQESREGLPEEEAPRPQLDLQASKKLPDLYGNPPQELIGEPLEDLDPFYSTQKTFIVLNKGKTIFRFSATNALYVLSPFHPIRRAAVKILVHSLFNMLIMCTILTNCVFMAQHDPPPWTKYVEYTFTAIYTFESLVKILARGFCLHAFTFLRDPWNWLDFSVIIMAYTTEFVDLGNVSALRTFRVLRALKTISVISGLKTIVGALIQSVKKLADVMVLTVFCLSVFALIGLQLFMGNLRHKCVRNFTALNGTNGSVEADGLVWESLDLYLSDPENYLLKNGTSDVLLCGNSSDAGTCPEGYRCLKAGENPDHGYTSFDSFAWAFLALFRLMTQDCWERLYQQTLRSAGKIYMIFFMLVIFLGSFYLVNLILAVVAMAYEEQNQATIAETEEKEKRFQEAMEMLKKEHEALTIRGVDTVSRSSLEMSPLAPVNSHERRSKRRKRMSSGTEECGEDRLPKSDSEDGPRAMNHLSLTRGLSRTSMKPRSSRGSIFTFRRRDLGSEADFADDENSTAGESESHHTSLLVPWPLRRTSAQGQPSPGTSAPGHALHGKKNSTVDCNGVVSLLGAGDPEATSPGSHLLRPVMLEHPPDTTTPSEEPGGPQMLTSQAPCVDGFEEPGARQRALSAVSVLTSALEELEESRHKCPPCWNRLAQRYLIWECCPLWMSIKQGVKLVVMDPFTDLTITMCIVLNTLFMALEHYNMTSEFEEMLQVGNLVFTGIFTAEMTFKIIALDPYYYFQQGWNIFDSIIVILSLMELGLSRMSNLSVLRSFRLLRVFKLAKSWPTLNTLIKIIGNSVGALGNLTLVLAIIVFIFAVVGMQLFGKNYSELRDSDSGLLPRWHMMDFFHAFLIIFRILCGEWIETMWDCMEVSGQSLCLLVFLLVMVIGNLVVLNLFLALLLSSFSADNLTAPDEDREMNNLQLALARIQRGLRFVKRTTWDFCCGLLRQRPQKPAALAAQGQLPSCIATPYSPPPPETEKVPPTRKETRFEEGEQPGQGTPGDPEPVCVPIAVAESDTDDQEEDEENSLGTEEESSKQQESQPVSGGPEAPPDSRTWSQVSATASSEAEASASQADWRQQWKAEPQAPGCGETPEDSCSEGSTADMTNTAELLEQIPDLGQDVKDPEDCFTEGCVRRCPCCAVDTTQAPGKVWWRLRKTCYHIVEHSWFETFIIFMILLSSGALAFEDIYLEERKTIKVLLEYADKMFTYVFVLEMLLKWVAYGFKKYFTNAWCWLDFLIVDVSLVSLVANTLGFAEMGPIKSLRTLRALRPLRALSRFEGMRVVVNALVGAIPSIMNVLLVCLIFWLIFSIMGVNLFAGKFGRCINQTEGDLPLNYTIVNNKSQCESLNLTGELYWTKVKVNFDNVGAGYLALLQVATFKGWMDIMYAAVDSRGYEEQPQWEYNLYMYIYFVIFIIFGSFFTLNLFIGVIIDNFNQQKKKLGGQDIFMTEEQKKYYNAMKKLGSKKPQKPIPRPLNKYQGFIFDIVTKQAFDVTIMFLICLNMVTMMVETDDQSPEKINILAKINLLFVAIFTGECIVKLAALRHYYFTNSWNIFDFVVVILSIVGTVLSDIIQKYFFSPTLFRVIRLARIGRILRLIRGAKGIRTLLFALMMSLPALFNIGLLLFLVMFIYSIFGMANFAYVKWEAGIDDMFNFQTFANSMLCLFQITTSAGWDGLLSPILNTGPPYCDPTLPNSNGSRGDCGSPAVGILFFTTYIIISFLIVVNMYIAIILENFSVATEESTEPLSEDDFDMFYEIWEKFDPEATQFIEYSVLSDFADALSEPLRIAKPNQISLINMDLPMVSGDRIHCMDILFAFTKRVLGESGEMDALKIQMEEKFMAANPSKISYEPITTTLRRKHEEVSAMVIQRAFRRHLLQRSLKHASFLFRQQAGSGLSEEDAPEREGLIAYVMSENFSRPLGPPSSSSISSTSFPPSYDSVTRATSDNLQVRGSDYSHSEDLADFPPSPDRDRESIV

SMILES: CCN1C(=O)c2c(O)c(=O)c(-c3nnc(Cc4ccc(F)cc4F)s3)cn2N2CCCC[C@@H]12 [Compound I-002]
- EC50 (HIV): 3.2 nM
- FC (fold change) for mutant strain 1 [1]: 5.6
- FC (fold change) for mutant strain 2 [2]: 7.5
- FC for mutant strain 3 [3]: 7.7
- FC for mutant strain 4 [4]: 3.2
- ratio of maximum peak current (INa) with compound relative to medium [5]: 102%
